In PubChem BioAssay AID602487 (The Scripps Research Institute Molecular Screening Center, 2012) one finds inhibition data, which are given here for five molecules.

By inhibition is commonly meant the relative decrease from the control value, in per cent.

This test concerns SARS coronavirus 3C-like protease (3CLpro). In words: SARS 3CLpro protease inhibitors, late-stage follow-up, biochemical, fluorescence, single concentration, set 5 (AID 602487). To be noted: purified 3CLpro, fluorogenic substrate cleavage; at 100 µM; active compounds read high.

Calls of active or inactive are those of the source. The rule behind the calls is not given here.

Regarding `CC(=O)Nc1ccc(N(C(=O)Cn2ccnn2)C(C(=O)NC(C)(C)C)c2ccsc2)cc1` (stereo not given), the inhibition was 5.4% (inactive).

As to `CC(C)C(=O)Nc1ccc(N(Cc2ccsc2)C(=O)Cn2cc(-c3ccccc3)nn2)cc1`, the inhibition is 3.7% (inactive). As for `CC(=O)Nc1ccc(N(C(=O)Cn2cc([Si](C)(C)C)nn2)C(C(=O)NC(C)(C)C)c2ccsc2)cc1` (stereo not given), the figure is -3.9% (inactive); as for `CC(C)C(=O)Nc1ccc(N(Cc2ccsc2)C(=O)Cn2ccnn2)cc1`, 26.1% (inactive); as for `CC(C)C(=O)Nc1ccc(N(Cc2ccsc2)C(=O)Cn2cc([Si](C)(C)C)nn2)cc1`, 4.5% (inactive).
